What is called IC50 is the concentration at which inhibition is half-maximal. Low readings indicate greater potency, high ones weaker potency.

Molecules are shown by their SMILES. Where a SMILES comes first, the peptide text is derived from it. Bridges are numbered along the chain shown (N, C = ends). [ ]: non-standard residue; d: D form. dPhe(4-CONH2) = NC(=O)c1ccc(C[C@@H](N)C(=O)O)cc1; Phe(4-Cl) = N[C@@H](Cc1ccc(Cl)cc1)C(=O)O; Lys(Me) = CNCCCC[C@H](N)C(=O)O Some results are limits rather than exact numbers.

The target of one assay is SSTR1 (Homo sapiens, UniProt P30872). In words: PathHunter β-Arrestin assay, antagonist mode, SSTR1. The assay is classed as cell-based. The settings on record: agonist challenge at EC80. On the procedure: (§1) The PathHunter® β-Arrestin assay monitors the activation of a GPCR in a homogenous, non-imaging assay format using a technology developed by DiscoveRx called Enzyme Fragment Complementation (EFC) with β-galactosidase (β-Gal) as the functional reporter. […] EA is fused to β-Arrestin and […] is fused to the GPCR of interest. When the GPCR is activated and β-Arrestin is recruited to the receptor, ED and EA complementation occurs, restoring β-Gal activity which is measured using chemiluminescent PathHunter® Detection Reagents. For antagonist determination, cells were pre-incubated with the compounds followed by agonist challenge at the EC80 concentration. Data was normalized to the maximal and minimal response observed in the presence of EC80 ligand and vehicle. Compound activity was analyzed using CBIS data analysis suite ChemInnovation, CA). Percentage inhibition was calculated using the following formula: % Inhibition=100%×(1−(mean signal of test sample-mean signal of vehicle control)/(mean signal of EC80 control-mean signal of vehicle control)). Percentage inhibition was calculated at 10 concentrations in steps on a Log 3 scale ranging from […] to 5e-5 μM. The results were plotted for IC50 calculation.
SSTR1, sequence (P30872 whole entry, the tested form may be a part): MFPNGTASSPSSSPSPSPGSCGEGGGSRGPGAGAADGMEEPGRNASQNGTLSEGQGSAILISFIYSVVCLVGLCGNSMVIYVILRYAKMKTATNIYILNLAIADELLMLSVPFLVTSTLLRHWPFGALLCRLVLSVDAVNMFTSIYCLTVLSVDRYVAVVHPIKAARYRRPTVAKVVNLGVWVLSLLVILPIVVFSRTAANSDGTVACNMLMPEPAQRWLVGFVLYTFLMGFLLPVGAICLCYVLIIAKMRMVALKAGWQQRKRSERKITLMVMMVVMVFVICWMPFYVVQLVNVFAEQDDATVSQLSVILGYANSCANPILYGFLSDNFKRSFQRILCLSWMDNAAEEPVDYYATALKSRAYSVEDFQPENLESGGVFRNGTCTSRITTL

Assay [1] concerns the target somatostatin type 2 (SSTR2) receptors (Homo sapiens, UniProt P30874). The assay is described as follows: PathHunter β-Arrestin assay, antagonist mode, SSTR2. Format: cell-based. The settings on record: agonist challenge at EC80. The essentials: (§2)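 Cells co-expressing PK-tagged human receptor and EA-β-Arrestin were pre-incubated with compound, then challenged with agonist at EC80. β-Gal complementation read by chemiluminescence; % inhibition normalized to EC80 and vehicle controls at 10 concentrations (log 3 steps from 1 μM down to 5e-5 μM), fitted for IC50.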

The target in the next assay is SSTR3 (Homo sapiens, UniProt P32745). The assay is described as follows: PathHunter β-Arrestin assay, antagonist mode, SSTR3. The assay is classed as cell-based. Particulars: agonist challenge at EC80. The essentials:
as §2

A further assay addresses SSTR4 (Homo sapiens, UniProt P31391). The assay is described as follows: PathHunter β-Arrestin assay, antagonist mode, SSTR4. The assay is classed as cell-based. The settings on record: agonist challenge at EC80. On the procedure: as §1
The target in a further assay is SSTR5 (Homo sapiens, UniProt P35346). In words: PathHunter β-Arrestin assay, antagonist mode, SSTR5. The assay is classed as cell-based. The settings on record: agonist challenge at EC80. On the procedure: as §1
SSTR5, sequence (P35346 whole entry): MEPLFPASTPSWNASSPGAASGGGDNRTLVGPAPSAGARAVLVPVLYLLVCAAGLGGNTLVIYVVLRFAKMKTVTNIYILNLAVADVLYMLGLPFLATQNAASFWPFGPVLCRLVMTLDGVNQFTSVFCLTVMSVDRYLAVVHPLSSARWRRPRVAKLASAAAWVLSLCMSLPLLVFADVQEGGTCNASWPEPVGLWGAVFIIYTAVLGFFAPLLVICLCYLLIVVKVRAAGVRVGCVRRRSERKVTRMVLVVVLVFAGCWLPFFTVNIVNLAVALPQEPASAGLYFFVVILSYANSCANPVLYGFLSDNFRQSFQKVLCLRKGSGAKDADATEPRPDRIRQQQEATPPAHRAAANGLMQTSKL
Assay [2] relates to STZ diabetic Sprague Dawley rats. The assay is described as follows: Hypoglycemic Challenge #1 (10 U/kg insulin) in STZ diabetic rats. Format: in vivo, rat. Particulars: for period after insulin with significantly higher BG values compared with Vehicle Control: 2-Way ANOVA, insulin 10 U/kg; for peak glucagon value: saphenous blood, 0 to 100 minutes after insulin dosing. On the procedure: (§3) Male Sprague Dawley rats (initial weight 150-175 g) were purchased from Charles River Laboratories (Montreal, QC, Canada). Rats were housed in the York University Vivarium in a 12-hour light dark cycle. All animals were fed a standard rodent chow diet (14% fat, 54% carbohydrates, […] & 3.0 calories/g of food) and water ad libitum. After a minimum of one week of acclimation, all animals received an intraperitoneal injection of streptozotocin (STZ) (Sigma) at a dose of 65 mg/kg body weight. After STZ injection, animals were provided with sugar water (5% solution) overnight. Any animals whose blood glucose was not greater than 10 mM within 2 days of STZ injection received a second injection.
One week after induction of diabetes, insulin treatment was initiated to maintain blood glucose values within a reasonable glucose controlled range in the fasted state (8-20 mM). Insulin pellets (LinChin, Toronto, ON, Canada) were implanted subcutaneously in any rat with blood glucose over 20 mM. Briefly, animals were anesthetized via inhaled isoflurane and pellets were implanted subcutaneously within the scapular region. One week later animals underwent their first hypoglycemic challenge (Hypoglycemic Challenge #1), followed by a second hypoglycemic challenge (Hypoglycemic Challenge #2) the following week (see below). Throughout the study, daily animals checks were conducted to assess body weight, blood glucose as well as food/calorie consumption.
Animals were divided into groups and received Compound 4, or Compound 24 or a corresponding dose of vehicle. Compounds were given 1 hour prior to commencement of the hypoglycemic challenge. On the morning of the hypoglycemic challenge, food was removed from the cage and a plasma sample was collected as baseline (prior to compound/vehicle administration), one-hour post drug/vehicle administration and at set points throughout the challenges.
For Hypoglycemic Challenge #1, hypoglycemia was induced via subcutaneous administration of a bolus of insulin (10U Novo Rapid insulin/kg body weight). Blood glucose was assessed every 10 minutes via saphenous vein puncture. Additionally, plasma was collected from the saphenous vein every 20 minutes, until 100-minutes post insulin administration. An additional plasma sample was collected 4-hours post drug administration (3 hours post insulin bolus) for mass spectrometry analysis of the compounds in plasma.

The test system is the same in assay [3]. In words: Hypoglycemic Challenge #2 (20 U/kg insulin) in STZ diabetic rats. Particulars: 20 U/kg insulin challenge; target BG 2.5 mM; N=9. Format: in vivo, rat. Here is the method:
as §3
One week after induction of diabetes, insulin treatment was initiated to maintain blood glucose values within a reasonable glucose controlled range in the fasted state (8-20 mM). Insulin pellets (LinChin, Toronto, ON, Canada) were implanted subcutaneously in any rat with blood glucose over 20 mM. […]
One week after the first hypoglycemia challenge, a second similar hypoglycemic challenge (Hypoglycemia Challenge #2) was conducted; however this time a higher dose of insulin was given to insure that severe hypoglycemia developed (20U Novo Rapid/kg body weight). Blood glucose was monitored, every 5-10 min, via saphenous vein puncture. […]

SSTR4, sequence (P31391 whole entry): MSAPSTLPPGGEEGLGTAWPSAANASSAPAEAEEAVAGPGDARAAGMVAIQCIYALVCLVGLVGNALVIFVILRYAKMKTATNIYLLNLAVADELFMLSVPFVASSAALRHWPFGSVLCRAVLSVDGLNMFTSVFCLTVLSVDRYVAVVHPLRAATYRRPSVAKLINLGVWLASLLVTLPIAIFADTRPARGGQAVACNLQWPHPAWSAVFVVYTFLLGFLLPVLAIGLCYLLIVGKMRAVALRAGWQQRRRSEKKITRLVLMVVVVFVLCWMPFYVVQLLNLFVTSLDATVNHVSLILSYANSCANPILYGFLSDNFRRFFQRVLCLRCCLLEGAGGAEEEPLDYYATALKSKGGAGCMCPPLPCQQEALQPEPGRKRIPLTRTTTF
somatostatin type 2 (SSTR2) receptors, sequence (P30874 whole entry): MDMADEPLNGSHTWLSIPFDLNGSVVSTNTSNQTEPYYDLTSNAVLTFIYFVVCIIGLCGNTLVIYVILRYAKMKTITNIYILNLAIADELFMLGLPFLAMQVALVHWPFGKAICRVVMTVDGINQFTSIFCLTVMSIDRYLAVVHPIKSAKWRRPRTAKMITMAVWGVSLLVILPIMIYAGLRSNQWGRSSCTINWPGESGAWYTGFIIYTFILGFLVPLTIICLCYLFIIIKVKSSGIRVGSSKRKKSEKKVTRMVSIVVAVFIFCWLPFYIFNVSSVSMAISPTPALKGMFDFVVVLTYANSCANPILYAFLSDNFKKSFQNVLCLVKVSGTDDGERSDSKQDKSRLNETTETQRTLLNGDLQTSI
SSTR3, sequence (P32745 whole entry): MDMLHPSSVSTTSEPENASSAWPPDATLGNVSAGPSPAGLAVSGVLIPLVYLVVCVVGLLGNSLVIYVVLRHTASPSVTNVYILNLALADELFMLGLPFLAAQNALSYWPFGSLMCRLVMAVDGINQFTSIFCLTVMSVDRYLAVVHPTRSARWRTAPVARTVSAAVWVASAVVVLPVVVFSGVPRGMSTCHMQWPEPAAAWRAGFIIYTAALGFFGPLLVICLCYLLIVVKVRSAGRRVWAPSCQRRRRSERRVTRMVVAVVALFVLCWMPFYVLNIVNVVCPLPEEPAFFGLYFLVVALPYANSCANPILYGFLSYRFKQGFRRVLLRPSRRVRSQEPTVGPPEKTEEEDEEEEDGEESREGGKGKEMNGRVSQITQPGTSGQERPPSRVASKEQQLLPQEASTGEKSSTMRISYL

Turning to `C[C@@H](O)[C@@H]1NC(=O)[C@H](CCCCN)NC(=O)[C@@H](Cc2ccc(C(N)=O)cc2)NC(=O)[C@H](Cc2ccc(O)cc2)NC(=O)[C@H](NC(=O)[C@@H](N)Cc2ccc(Cl)cc2)CSSC[C@@H](C(=O)N[C@H](Cc2ccc(O)cc2)C(N)=O)NC1=O` [Compound 4, H-Cpa-cyclo[D-Cys-Tyr-D-Phe(4-carbamoyl)-Lys-Thr-Cys]-D-Tyr-NH2], the half-maximal inhibitory concentration (IC50) is > 1 µM at SSTR1; 0.017 µM in assay [1]; > 1 µM at SSTR3; > 1 µM on SSTR4; > 1 µM on SSTR5. Further, the “period after insulin with significantly higher BG values compared with Vehicle Control” value in assay [2] (N=9) is 20 min. Moreover, in assay [2] (after 130 minutes), the “incidence of severe hypoglycemia (BG threshold 1.9 mM)” value was 33%. Also, the peak glucagon value in assay [2] (N=9) was found to be 180 pg/mL. Besides, the “average portal blood glucagon concentration at hypoglycemia” value in assay [3] was found to be 462 pg/mL.
In the case of `CNCCCC[C@@H]1NC(=O)[C@@H](Cc2ccc(C(N)=O)cc2)NC(=O)[C@H](Cc2ccc(O)cc2)NC(=O)[C@H](NC(=O)[C@@H](N)Cc2ccc(Cl)cc2)CSSC[C@@H](C(=O)N[C@H](Cc2ccc(O)cc2)C(N)=O)NC(=O)[C@H]([C@@H](C)O)NC1=O` [Compound 24, H-Cpa-cyclo[D-Cys-Tyr-D-Phe(4-carbamoyl)-Lys(N^ε-Me)-Thr-Cys]-D-Tyr-NH2] (H-[Phe(4-Cl)][dC]Y[dPhe(4-CONH2)][Lys(Me)]TC[dY]-NH2; disulfide 2-7), the half-maximal inhibitory concentration (IC50) on SSTR1 was > 1 µM; in assay [1] it was 0.00096 µM; on SSTR3 it was > 1 µM; on SSTR4, > 1 µM; on SSTR5 it was > 1 µM. Moreover, the “period after insulin with significantly higher BG values compared with Vehicle Control” value in assay [2] (N=9) came out at 40 min. Moreover, the “time at which rats first became hypoglycemic (BG threshold 3.9 mM)” value in assay [2] (2 of 9 rats, after insulin 10 U/kg) amounted to 40 min. The “average time to onset of hypoglycemia (BG first reached 3.9 mM)” value in assay [2] (after 10 U/kg insulin dose, interpolated from BG curves, N=9) was found to be 97 min. The “incidence of severe hypoglycemia (BG threshold 1.9 mM)” value in assay [2] (after 150 minutes) came to 44%. Moreover, the “AUC of blood glucose below the 3.9 mM threshold (extent of hypoglycemia)” value in assay [2] (compound at t=-60 min, insulin 10 U/kg at t=0, N=9) worked out at 55 mM·min. In addition, the “number of rats that never became hypoglycemic” value in assay [2] (of 9 rats, BG threshold 3.9 mM) stood at 1. Further, in assay [2] (N=9), the peak glucagon value was determined as 175 pg/mL. Further, in assay [3], the “average portal blood glucagon concentration at hypoglycemia” value was 801 pg/mL.

(Values after patent publication US12486302B2, “Somatostatin receptor antagonist compounds and methods of using the same” (CDRD VENTURES INC., priority 2016, dated 2025).)
